Test results as given in publication PMC8302598, “Rapid discovery of self-assembling peptides with one-bead one-compound peptide library” (Nature Communications, 2021).

Tests used:
[1] = Self-assembly of resynthesized soluble pentapeptides; assay type: physicochemical; settings: self-assembly under aqueous environment
Description: Once the screening method has been validated with our model KLVFF peptide, a totally random pentapeptide library with 19[5] permutations (cysteine was omitted from the library) was constructed using our previously published methods (Supplementary Fig. 3)[23]. Again, TentaGel S resin (loading of 0.31 mmol/g) was used as the solid support. The pentapeptides in the library were N-terminally capped with NBD. […] The positive bead with an intense fluorescent signal (pointed with a solid arrow) was noted. The rest of the beads were considered negative or weak positive beads. From a total of approximately 100 000 beads screened, we selected a total of eight strongest fluorescent positive beads and four dark beads as negative beads. The peptides were then resynthesized in soluble form and purified by high-performance liquid chromatography (HPLC) for testing (Supplementary Figs. 4–12). The amino acid sequences of the eight self-assembling pentapeptides are FTISD, ITSVV, YFTEF, ISDNL, LDFPI, FAGFT, FGFDP, and FFVDF. Not unexpectedly, of the 40 amino acids in these eight pentapeptides, 50% are hydrophobic residues, predominated by Phe (11 Phe, 4 Ile, 3 Val, and 2 Leu). For the remaining 20 amino acids, six are acidic residues (5 Asp and 1 Glu) and seven are neutral and hydrophilic (4 Thr and 3 Ser). The rest are 2 Pro, 2 Gly, 1 Tyr, 1 Asn, and 1 Ala. All eight peptides have at least two hydrophobic residues. Six out of the eight peptides have one negatively charged residue (Asp or Glu). The remaining two peptides are neutral. […] For the Pro containing pentapeptides, LDFPI and FGFDP, the Pro residue, which promotes peptide turns, resides at the fourth and fifth positions, but not in the middle. Not unexpectedly, all the four randomly selected negative non-assembling peptides (RITTR, PLVKA, PFTTR, and QIMRW) have very different sequences, and contain at least one positive charged amino acid.
To estimate the propensity of the identified peptides to self-assemble, the critical micelle concentrations (CMC) of the eight positive peptides and four negative peptides were determined, and the results are shown in Table 1 and Supplementary Figs. 13, 14. The CMC of all the eight positive peptides were detectable and found to range between 8.4 and 14.8 μM, indicating the propensity for these peptides to self-assemble under aqueous environment. […] Hydrophobicity of peptides can be predicted by the value of GRAVY[28] with more negative value for more hydrophilic peptides. Of the four negative assembling peptides, two have a negative GRAVY value. […] Experimental testing, such as the screening strategy described in this work, is needed. This is because multiple factors, including hydrophobicity, hydrogen-bonding, electrostatic interactions, and positions of each residue within the peptides, all contribute to the assembling and final morphology of the self-assembled nano-structure. […]

[2] = test system: HeLa cells; test: Cell uptake pathway analysis (4 °C and endocytosis inhibitors); assay type: cell-based; settings: for Cell uptake in the presence of amiloride and M-β-CD: 50 μM peptide; for Cell uptake in the presence of amiloride and M-β-CD / Cell uptake mechanism: amiloride 2 mM, M-β-CD 5 mM; for Cell uptake mechanism: 50 μM, 37 or 4 °C, chlorpromazine 50 μM, CLSM, n=3; for Cell uptake at 4 °C: FITC-labeled nano-assembly (3% labeled), 4 °C vs 37 °C
Method: Finally, we examined the biological effects and cellular distribution of the eight self-assembling peptides on HeLa cells. […] In order to observe the nanomaterials under fluorescent microscopy, each peptide preparation was spiked with 3% of the same peptide N-terminally labeled with FITC, and then added to HeLa cells at a final concentration of 40 μM. […] After 4 h of incubation with the peptide assemblies, the cells were observed under a fluorescent microscope (Figs. 4c, d and Supplementary 22). […] It is important to note that LDFPI nanoparticle was small (8 nm diameter) even after 4 h incubation. Its small size may in part explain its ability to pass through the nuclear pore complexes[32],[33]. […] To evaluate the cell uptake mechanism of peptide assemblies (YFTEF, ISDNL, and FGFDP) into the cytoplasm, we treated the cells at 4 °C or with various endocytosis inhibitors (Supplementary Fig. 23). […]
Supplementary Figure 23 . Cell uptake pathway analysis for FITC-labeled pentapeptide assemblies YFTEF, ISDNL and […]. a) CLSM images of HeLa cells incubated with pentapeptides (50 μ M ) at di fferent temperatures (37 or 4 °C) and in the presence of various endocytosis inhibitors, such as amiloride (2 mM), M-β-CD (5 mM), and chlorpromazine (50 μM). The scale bar is 10 μm. b) Relevant quantitative analysis of images from ‘a’. 3% of the assembled peptides was N-terminally labeled with FITC, E rror ba rs represent Standard Deviation (n=3). […]
To elucidate the cell uptake pathways of pentapeptides, we quantified the fluorescence intensity of the HeLa cells after incubation with FITC-labeled nano-assembly of YFTEF, ISDNL, FAGFT, FGFDP, at 37 and 4 °C, respectively (3% of the peptide assembly were N-terminally labeled with FITC for tracking). There were nearly no uptake of pentapeptides by HeLa cells at 4 °C, which is consistent with mechanism of cell uptake by endocytosis. We have also examined the effects of cell uptake by various endocytosis inhibitors: amiloride (2 mM, inhibitor of endocytosis), M-β-CD (5 mM, inhibitor of caveolae-dependent endocytosis), and chlorpromazine (50 μM, inhibitor of clathrin-dependent endocytosis).
(1 picture or pasted object on this page, not shown here)
Figure R11. Cell uptake pathway detection. a) CLSM images of HeLa cells incubated with pentapeptides (50 μM) at different temperatures (37 or 4 °C) and in the presence of various endocytosis inhibitors, such as amiloride (2 mM), M-13-CD (5 mM), and chlorpromazine(50 μM), respectively. The scale bar is 10 μm. b) Relevant quantitative analysis in ‘a’. […]

Row | Assembly [1] | Substance | Cell uptake in the presence of amiloride and M-β-CD [2] | Cell uptake mechanism [2] | Cell uptake at 4 °C [2]
1 | Yes | LDFPI [self-assembling pentapeptide identified from OBOC library] | – | – | –
2 | Yes | ISDNL [self-assembling pentapeptide identified from OBOC library] | significantly decreased | caveolae-dependent endocytosis and micropinocytosis | nearly no uptake
3 | Yes | FFVDF [self-assembling pentapeptide identified from OBOC library, forms nanofibers] | – | – | –
4 | Yes | FAGFT [self-assembling pentapeptide identified from OBOC library] | significantly decreased | – | nearly no uptake
5 | Yes | YFTEF [self-assembling pentapeptide identified from OBOC library] | – | clathrin dependent endocytosis | nearly no uptake
6 | Yes | FTISD [self-assembling pentapeptide identified from OBOC library] | – | – | –
7 | Yes | ITSVV [self-assembling pentapeptide identified from OBOC library] | – | – | –
8 | Yes | FGFDP [self-assembling pentapeptide identified from OBOC library] | – | both caveolae-dependent and clathrin-dependent endocytosis | nearly no uptake
